Experimental data: US20230165252A1, “ACTIVE COMPOUND COMBINATIONS” (Bayer Aktiengesellschaft, priority 2020, published 2023)

Experiment: Measurement of Log P values by HPLC on reversed phase columns (EEC directive 79/831 Annex V.A8), methods [a], [b], [c]
Format: physicochemical
Conditions: for chromatographic logP: reversed-phase HPLC column
[1] = HPLC on reversed phase column, method [a]

Experimental: Measurement of Log P values as provided herein was performed according to EEC directive 79/831 Annex V.A8 by HPLC (High Performance Liquid Chromatography) on reversed phase columns with the following methods: • ^[a]

Row | SMILES | LogP [1] | LogP (HPLC method [a]) | other results
1 | Cc1ccc(C(F)(F)CNC(=O)c2c(Oc3cccc(C(F)(F)F)c3)nnc(Cl)c2NC2COC2)c(C)c1 [Compound I-408, 6-chloro-N-[2-(2,4-dimethylphenyl)-2,2-difluoro-ethyl]-5-(oxetan-3-ylamino)-3-[3-(trifluoromethyl)phenoxy]pyridazine-4-carboxamide] |  |  | chromatographic logP (HPLC method [a]): 3.85; chromatographic logP (HPLC method [b]): 3.94
2 | Cc1ccc(C(F)(F)CNC(=O)c2cc(I)nnc2Oc2cccc(C(F)(F)F)c2)c(C)c1 [Compound I-461, N-[2-(2,4-dimethylphenyl)-2,2-difluoro-ethyl]-6-iodo-3-[3-(trifluoromethyl)phenoxy]pyridazine-4-carboxamide] |  |  | chromatographic logP (method [a]): 4.67
3 | O=C(NCC(F)(F)c1ccc(Br)cc1Cl)c1cc(Cl)nnc1Oc1cccc(F)c1F [Compound I-530, N-[2-(4-bromo-2-chloro-phenyl)-2,2-difluoro-ethyl]-6-chloro-3-(2,3-difluorophenoxy)pyridazine-4-carboxamide] |  |  | chromatographic logP (method [a]): 4.27
4 | Cc1ccc(C(F)(F)CNC(=O)c2c(Oc3cccc(C(F)(F)F)c3)nnc(Cl)c2-c2cccnc2)c(C)c1 [Compound I-550, 6-chloro-N-[2-(2,4-dimethylphenyl)-2,2-difluoro-ethyl]-5-(3-pyridyl)-3-[3-(trifluoromethyl)phenoxy]pyridazine-4-carboxamide] |  |  | chromatographic logP (method [a]): 3.99
5 | Cc1ccc(C(F)(F)CNC(=O)c2cc(C)nnc2Oc2cccc(C3CCC3)c2)c(C)c1 [Compound I-564, 3-(3-cyclobutylphenoxy)-N-[2-(2,4-dimethylphenyl)-2,2-difluoro-ethyl]-6-methyl-pyridazine-4-carboxamide] |  |  | chromatographic logP (method [a]): 3.85
6 | CSc1cc(C(=O)NCC(F)(F)c2ccc(C)cc2C)c(Oc2cccc(C(F)(F)F)c2)nn1 [Compound I-767, N-[2-(2,4-dimethylphenyl)-2,2-difluoro-ethyl]-6-methylsulfanyl-3-[3-(trifluoromethyl)phenoxy]pyridazine-4-carboxamide] |  |  | chromatographic logP (method [a]): 4.72
7 | Cc1ccc(C(F)(F)CNC(=O)c2c(Oc3cccc(Cl)c3)nnc(Cl)c2C)c(C)c1 [Compound I-790, 6-chloro-3-(3-chlorophenoxy)-N-[2-(2,4-dimethylphenyl)-2,2-difluoro-ethyl]-5-methyl-pyridazine-4-carboxamide] |  |  | chromatographic logP (method [a]): 4.27
8 | Cc1ccc(C(F)(F)CNC(=O)c2c(Oc3cccc(C4CC4)c3F)nnc(Cl)c2C)c(Br)c1 [Compound I-840, N-[2-(2-bromo-4-methylphenyl)-2,2-difluoroethyl]-6-chloro-3-(3-cyclopropyl-2-fluoro-phenoxy)-5-methylpyridazine-4-carboxamide] |  |  | chromatographic logP [1]: 4.57
9 | COc1ccc(C(F)(F)CNC(=O)c2cc(Cl)nnc2Oc2cccc(C(F)(F)F)c2)c(Cl)c1 [I-007] | 4.00^[a] |  | 
10 | Cc1cc(C(=O)NCC(F)(F)c2ccc(C3CCCCC3)cc2Cl)c(Oc2cccc(C(F)(F)F)c2)nn1 [I-018] | 5.44^[a] |  | 
11 | Cc1cc(C(=O)NCC(F)(F)c2ccc(C3CCC3)cc2Cl)c(Oc2cccc(C(F)(F)F)c2)nn1 [I-028] | 4.83^[a] |  | 
12 | COc1ccc(CCNC(=O)c2cc(Cl)nnc2Oc2cccc(C(F)(F)F)c2)cc1 [I-036] | 3.61^[a] |  | 
13 | O=C(NCCc1ncccc1C(F)(F)F)c1cc(Cl)nnc1Oc1cccc(C(F)(F)F)c1 [I-037] | 3.65^[a] |  | 
14 | Cc1ccc(C(F)(F)CNC(=O)c2c(Oc3cccc(C(F)(F)F)c3)nnc(Cl)c2NCC(C)(C)O[Si](C)(C)C)c(C)c1 [I-064] | 6.32^[a] |  | 
15 | O=C(NCC(F)(F)c1ccc(F)cc1F)c1cc(Cl)nnc1Oc1cccc(C(F)(F)F)c1 [I-067] | 3.75^[a] |  | 
16 | O=C(NCCc1ccc(C(F)(F)F)cn1)c1cc(Cl)nnc1Oc1cccc(C(F)(F)F)c1 [I-068] | 3.53^[a] |  | 
17 | Cc1ccc(C(F)(F)CNC(=O)c2c(Oc3cccc(C(F)(F)F)c3)nnc(Cl)c2[S+](C)[O-])c(C)c1 (stereo not drawn) [I-072] | 3.75^[a] |  | 
18 | CC(CNC(=O)c1cc(Cl)nnc1Oc1cccc(C(F)(F)F)c1)c1ccc(Cl)cc1Cl (stereo not drawn) [I-075] | 4.68^[a] |  | 
19 | CC(=O)N(C)Cc1c(Cl)nnc(Oc2cccc(C(F)(F)F)c2)c1C(=O)NCCc1ccc(C)cc1C [I-077] | 3.65^[a] |  | 
20 | O=C(NCC(F)(F)c1ccc(SCC(F)(F)F)cc1Cl)c1cc(Cl)nnc1Oc1cccc(C(F)(F)F)c1 [I-087] | 4.45^[a] |  | 
21 | O=C(NCC(F)(F)c1ccc(Cl)cn1)c1cc(Cl)nnc1Oc1cccc(C(F)(F)F)c1 [I-108] | 3.65^[a] |  | 
22 | O=C(NCC(F)(F)c1ccc(Cl)cn1)c1cc(Cl)nnc1Oc1cccc(C(F)F)c1 [I-158] | 3.32^[a] |  | 

Row | SMILES | LogP [1] | LogP (HPLC method [a]) | other results
23 | Cc1ccc(C(F)(F)CNC(=O)c2cc(Cl)nnc2Oc2cncc(Br)c2)c(C)c1 [I-173] | 3.78^[a] |  | 
24 | CCOc1c(Cl)nnc(Oc2cccc(C(F)(F)F)c2)c1C(=O)NCC(F)(F)c1ccc(C)cc1C [I-181] | 4.68^[a] |  | 
25 | Cc1cnnc(Oc2cccc(C(F)(F)F)c2)c1C(=O)NCC(F)(F)c1ccc(Cl)cc1Cl [I-183] | 3.78^[a] |  | 
26 | Cc1c(Cl)nnc(Oc2cccc(C3CC3)c2F)c1C(=O)NCCc1ccc(Cl)cc1Cl [I-215] | 4.58^[a] |  | 
27 | C=C(C)c1cc(C(=O)NCC(F)(F)c2ccc(C)cc2C)c(Oc2cccc(C(F)(F)F)c2)nn1 [I-222] |  | 4.87^[a] | 
28 | COc1ccc(CCNC(=O)c2cc(Cl)nnc2Oc2cccc(C(F)(F)F)c2)cc1OC [I-268] |  | 3.26^[a] | 
29 | O=C(NCC(F)(F)c1ccc(Cl)cc1)c1c(Oc2cccc(C(F)(F)F)c2)nnc(Cl)c1NC1CCCCC1 [I-272] |  | 4.98^[a] | 
30 | Cc1cc(C(=O)NCCc2ccc(C(F)F)cn2)c(Oc2cccc(C3CC3)c2)nn1 [I-282] |  |  | LogP (HPLC method [b]): 2.82^[b]
31 | O=C(NCc1cnc2ccccc2c1)c1cc(Cl)nnc1Oc1cccc(C(F)(F)F)c1 [I-306] |  | 2.71^[a] | 
32 | O=C(NCCc1ccc(C(F)F)cc1)c1cc(Cl)nnc1Oc1cccc(C(F)(F)F)c1 [I-309] |  | 3.78^[a] | 
33 | O=C(NCC(F)(F)c1ccc(Br)cc1Cl)c1cc(C2CC2)nnc1Oc1cccc(C(F)(F)F)c1 [I-312] |  | 4.79^[a]; | 
34 | O=C(NCC(F)(F)c1ccc(Br)cc1Cl)c1cc(Cl)nnc1Oc1cccc(C(F)(F)F)c1F [I-315] |  | 4.71^[a] | 
35 | Cc1ccc(C(F)(F)CNC(=O)c2cc(-c3ccncc3)nnc2Oc2cccc(C(F)(F)F)c2)c(C)c1 [I-316] |  | 3.65^[a] | 
36 | Cc1c(Cl)nnc(Oc2cccc(C(F)(F)F)c2)c1C(=O)NCC(F)(F)c1ccc(Cl)cc1Cl [I-338] |  | 4.43^[a] | 
37 | Cc1ccc(CCNC(=O)c2cc(Cl)nnc2Oc2cccc(C(F)(F)F)c2)c(-c2nccn2C)c1 [I-341] |  | 1.85^[a] | 
38 | O=C(NCC(F)(F)c1ccc(C2CC2)cc1Cl)c1cc(Cl)nnc1Oc1cccc(C(F)(F)F)c1 [I-360] |  | 4.58^[a] | 
39 | O=C(NCc1cncc2ccccc12)c1cc(Cl)nnc1Oc1cccc(C(F)(F)F)c1 [I-379] |  | 2.14^[a] | 
40 | Cc1cc(Br)ccc1C(F)(F)CNC(=O)c1cc(Cl)nnc1Oc1cccc(C(F)(F)F)c1 [I-404] |  | 4.57^[a] | 
41 | Cc1ccc(C(F)(F)CNC(=O)c2cc(C)nnc2Oc2cccc(C(F)(F)F)c2)c(C)c1 [I-411] |  | 4.00^[a] | 
42 | O=C(NCC(F)(F)c1ccc(C(F)(F)F)cc1Cl)c1cc(Cl)nnc1Oc1cccc(C(F)(F)F)c1 [I-418] |  | 4.45^[a] | 
43 | CCSc1c(Cl)nnc(Oc2cccc(C(F)(F)F)c2)c1C(=O)NCC(F)(F)c1ccc(C)cc1C [I-442] |  |  | LogP (method [a]): 4.87^[a]
44 | O=C(NCC(F)(F)c1ccc(Cl)cc1Br)c1cc(Cl)nnc1Oc1cccc(C(F)(F)F)c1 [I-478] |  |  | LogP (method [a]): 4.68^[a]
